Measured values from US20250109120A1, “INDOLINE DERIVATIVES FOR TREATMENT AND/OR PREVENTION OF TUMOR OR CELL PROLIFERATIVE AND FIBROSIS DISEASES” (NATIONAL TAIWAN UNIVERSITY, priority 2023, published 2025).

What was measured:
DU145 cells = experiment: LiCl-induced β-catenin signaling, western blot; assay type: cell-based, human; conditions: LiCl 20 mM; senexin A 10 μM
Experimental: Inhibitory phosphorylation of GSK3β was evaluated through western blotting. […] Whole-cell lysates were subjected to western blotting with the indicated antibodies. FIGS. 11J-11K show the comparison of basal activities of the Akt/GSK3β axis between PC-3 and DU145 cells. […] The results are shown as the mean±SEM from at least three independent experiments (*p<0.05, **p<0.01, ***p<0.001 vs. control group; #p<0.05, ##p<0.01, and ###p<0.001 vs. relevant control).
(§1) The cells were incubated in lysis buffer for 10 min at 4° C., scraped off, incubated on ice for an additional 10 min and then centrifuged at 17,000 g for 30 min at 4° C. Protein samples were electrophoresed on SDS-PAGE gels, transferred to PVDF membranes and blocked with 5% fat-free milk in PBS for 30 min at room temperature. Immunoblotting was performed overnight with primary antibodies in PBS at 4° C., followed by incubation with HRP-conjugated secondary antibodies for 1 h at room temperature. Bound antibodies will be measured using an ECL reagent and exposed to a photographic film. In the immunoprecipitation assay, cell lysates were immunoprecipitated with 1 μg of antibody and A/G agarose beads overnight at 4° C. After washing the precipitated beads three times with 1 mL ice-cold cell lysis buffer, bound immune complexes were separated by 10% SDS-PAGE and analyzed with immunoblotting.

PC-3 cells = experiment: PC-3 SCID mouse model; assay type: in vivo, mice; conditions: oral, 50 mg/kg q.d., 31 days
Experimental: PC-3 cells (1×10^7 cells) were injected subcutaneously into the flanks of 7-week-old male SCID mice and treated with vehicle or compound k (50 mg/kg) q.d. for 31 days. […] Tumors were excised from each mouse after a 31-day treatment. […] The length is represented by the scale bar as indicated.
as §1
Tissue sections underwent dewaxing and rehydration. Antigen retrieval was performed by autoclaving the slides in Trilogy solution (Cell Marque, Hot Springs, AR) at 121° C. for 10 min. The slides were blocked with 3% H2O2 and 5% fetal bovine serum, incubated with primary antibodies at 4° C. overnight, and then treated with polymer-HRP reagent (Dako Cytomation, Glostrup, Denmark). activity Peroxidase was visualized using diamino-benzidine tetrahydrochloride solution (DAKO), and sections were counterstained with hematoxylin. Dark brown nuclear staining was defined as positive, no staining was defined as negative.

A549 cells = experiment: TGF-β1-induced oxidative stress (MDA, Nox4); assay type: cell-based, human; conditions: compounds 2 μM, TGF-β1 10 ng/ml 24 h
Experimental: A549 cells were incubated with compounds k, b, a (2 μM), senexin A (5 μM), or pirfenidone (1 mM) for 1 h, followed by treatment with 10 ng/ml TGF-β1 for a further 24 h. Malondialdehyde (MDA) (FIG. 10A) and Nox4 (FIG. 10B) levels were detected. ***p<0.001 compared to the control group; #p<0.05, ##p<0.01, and ###p<0.001 compared to the TGF-β1-treated group.
An end product of lipid peroxidation, malondialdehyde (MDA), was measured by spectrophotometry at a wavelength of 532 nm using malondialdehyde bis(dimethyl acetal) as the standard as per the assay protocol (Cell Biolabs, USA).

[1] = system: STAT1-S727 phosphorylation (CDK8/19 kinase activity); experiment: STAT1-S727 phosphorylation western blot in DU145/PC-3 cells; assay type: cell-based, human
Experimental: FIGS. 2A-2D show the evaluation of CDK8 inhibition by compound k. […] Cell viability was measured by MTT assay, and the 50% inhibitory concentration (IC50) values were calculated by a sigmoidal dose-response equation. […] Whole-cell lysates were subjected to western blotting with the indicated antibodies. The results are shown as the mean t SEM from at least three independent experiments (*p<0.05, **p<0.01, and ***p<0.001 vs. control group; #p<0.05 vs. relevant control).
as §1

prostate cancer cells = experiment: Transwell migration assay; assay type: cell-based, human; conditions: both prostate cancer cells
[2] = system: CDH1 reporter in DU145 cells; experiment: 7TFP CDH1 reporter luciferase assay; assay type: cell-based, human; conditions: TGF-β1 10 ng/mL, 24 h
CDK8 = CDK8 (Homo sapiens (Human), UniProt P49336); experiment: LanthaScreen Eu Binding Assay, Thermo Fisher SelectScreen kinase service
Chain of CDK8 (P49336 whole entry, looked up): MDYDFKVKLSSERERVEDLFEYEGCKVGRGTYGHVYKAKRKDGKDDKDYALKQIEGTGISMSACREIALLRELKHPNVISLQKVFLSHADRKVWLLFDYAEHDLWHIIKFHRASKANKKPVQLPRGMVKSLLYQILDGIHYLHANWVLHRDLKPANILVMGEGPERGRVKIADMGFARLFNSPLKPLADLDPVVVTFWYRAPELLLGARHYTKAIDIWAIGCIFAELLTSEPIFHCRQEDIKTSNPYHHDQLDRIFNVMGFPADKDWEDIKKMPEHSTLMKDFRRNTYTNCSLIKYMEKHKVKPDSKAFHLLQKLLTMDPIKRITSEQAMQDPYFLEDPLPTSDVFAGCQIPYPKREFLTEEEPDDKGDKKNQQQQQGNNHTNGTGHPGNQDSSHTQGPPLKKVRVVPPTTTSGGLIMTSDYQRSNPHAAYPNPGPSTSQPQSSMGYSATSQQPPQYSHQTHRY
Chain of CDK8 (P24863 whole entry partner, looked up): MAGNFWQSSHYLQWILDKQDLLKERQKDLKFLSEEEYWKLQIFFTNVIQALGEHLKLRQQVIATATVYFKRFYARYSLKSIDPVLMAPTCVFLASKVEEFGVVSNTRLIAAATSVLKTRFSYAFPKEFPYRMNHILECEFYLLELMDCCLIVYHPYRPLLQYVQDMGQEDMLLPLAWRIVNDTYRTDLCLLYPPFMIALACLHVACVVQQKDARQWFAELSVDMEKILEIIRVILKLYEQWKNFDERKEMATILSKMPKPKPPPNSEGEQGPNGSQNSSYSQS
Experimental: Compounds were tested for kinase inhibitory activity using the Thermo Fisher SelectScreen service (www.thermofisher.com/selectscreen). For CDK8, the LanthaScreen Eu Binding Assay was used. Briefly, the assay employed utilizes a fluorescent tracer to a given kinase. This is used to detect the addition of an anti-tag antibody. When the tracer and antibody bind to the targeted kinase, the Forster resonance energy transfer is measured. When a kinase inhibitor is added to the assay, the tracer/kinase binding will be disrupted, producing low FRET detection and indicating kinase inhibitory activity. Evaluation of kinase activity of additional kinase targets utilized the LanthaScreen binding assay or the Z′-Lyte activity assay provided by Thermo Fisher SelectScreen service. The IC50 values were determined using sequential doses, and the inhibition curves were provided by Thermo Fisher Scientific.
The fragment-based drug design strategy in this study led to optimized CDK8 inhibitors with promising results. CDK8-inhibitory activities of the compounds (a-n) designed by this fragment-based drug design strategy were tested using the SelectScreen kinase service of ThermoFisher Scientific. The inhibitory effects of the 14 compounds and the referenced compound were tested at a concentration of 10 μM.

For `CNC(=O)c1cc(Oc2ccc(NS(=O)(=O)c3ccc4c(c3)C(=C(C)C)C(=O)N4)c(F)c2)ccn1` [Compound k, 4-(3-Fluoro-4-((2-oxo-3-(propan-2-ylidene)indoline)-5-sulfonamido)phenoxy)-N-methylpicolinamide], the “levels of active form of β-catenin and Snail” value (DU145 cells) was “reduced the levels”, the “binding of CDK8 and p-Smad3 (Thr179), tumor immunoprecipitation” value (PC-3 cells) was “markedly inhibited” and the body weight changes (PC-3 cells) was “no apparent body weight changes”. The “expression of EMT proteins, α-SMA, p-Smad3 (Thr179), active β-catenin, p-STAT1 Ser727 in tumor immunoblots” value (PC-3 cells) was “markedly inhibited”, the “interaction of CDK8 and MED12, tumor immunoprecipitation” value (PC-3 cells) was “did not affect” and the “tumor margin, H&E staining” value (PC-3 cells) was “distinct boundary”. The “vimentin, N-cadherin and Snail levels, IHC staining of tumors” value (PC-3 cells) was “significantly decreased”, the “TGF-β1-caused oxidative stress (MDA and Nox4 levels)” value (A549 cells) was “markedly reduced” and the “phosphorylation of STAT1 at Ser727” value ([1]; DU145/PC-3, 24 h, concentration-dependent) was “suppressed”. For the same compound, the “phosphorylation of STAT1 at Ser727 in CDK8-overexpressing cells” value ([1]; pcDNA3 CDK8 HA transfected DU145 and PC-3, concentration-dependent) was “significantly inhibited”, the “TGF-β1-triggered cell migration (transwell)” value (prostate cancer cells) was “significantly inhibited” and the “CDH1-driven luciferase expression reduced by TGF-β1” value [2] was “reversed this effect to the control level”. For the same compound, the CDK8 inhibition percentage (CDK8; 150 nM, 54-kinase panel) was 64%, the “CDK8 Inhibition percentage at 10 μM” value (CDK8; 10 μM) was 102% and the IC50 (CDK8; read-out: Inhibition of CDK8 IC50) was 0.129 µM. The “higher inhibitory potency compared to compound j” value (CDK8; vs compound j) was about 1.5 fold and the “increase in CDK8 inhibitory activity compared to E966-0530” value (CDK8; vs original compound E966-0530) was 13 fold.
